Measured values from ChEMBL document CHEMBL1201862, “PubChem BioAssay data set” (2004).
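Compound exposure: 48 hours, 5 concentrations, 96-well plates. GI50 = concentration required for 50% inhibition of growth.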 Activity calls are given as the source filed them. Cut-off read from the data, not from the text of the source: active = GI50 up to about 1.1 µM and inactive = higher.

Assays:
Experiment in all cases: NCI-60 cell line screen, 48 h
[1] = tested on: T47D
[2] = tested on: RXF 393
[3] = tested on: MCF7
[4] = tested on: SF-268
[5] = tested on: HL-60
[6] = tested on: BT-549
[7] = tested on: NCI-H226
[8] = tested on: MDA-MB-231
[9] = tested on: IGROV-1
[10] = tested on: Malme-3M
[11] = tested on: COLO 205
[12] = tested on: A498
[13] = tested on: NCI-H23
[14] = tested on: NCI-H460
[15] = tested on: KM12
[16] = tested on: UO-31
[17] = tested on: MDA-N
[18] = tested on: ACHN
[19] = tested on: SR

SMILES | GI50 [1] | GI50 [2] | GI50 [3] | GI50 [4] | GI50 [5] | GI50 [6] | GI50 [7] | GI50 [8] | GI50 [9] | GI50 [10] | GI50 [11] | GI50 [12] | GI50 [13] | GI50 [14] | GI50 [15] | GI50 [16] | GI50 [17] | GI50 [18] | GI50 [19]
CCOP(=O)(OCC)/C(=C/c1ccccc1)CC(C)=O | > 100 µM (inactive) | > 100 µM (inactive) | > 100 µM (inactive) | > 100 µM (inactive) | 22.1 µM (inactive) | > 100 µM (inactive) | > 100 µM (inactive) | > 100 µM (inactive) | > 100 µM (inactive) | > 100 µM (inactive) | > 100 µM (inactive) | > 100 µM (inactive) | > 100 µM (inactive) | > 100 µM (inactive) | > 100 µM (inactive) | > 100 µM (inactive) | > 100 µM (inactive) | > 100 µM (inactive) | 
CC12CCC(CC1=O)C2(C)CCC(N)=O (stereo not given) | > 100 µM (inactive) | > 100 µM (inactive) | > 100 µM (inactive) | > 100 µM (inactive) |  | > 100 µM (inactive) | > 100 µM (inactive) | > 100 µM (inactive) | > 100 µM (inactive) | > 100 µM (inactive) | > 100 µM (inactive) | > 100 µM (inactive) | > 100 µM (inactive) |  | > 100 µM (inactive) | > 100 µM (inactive) | > 100 µM (inactive) | > 100 µM (inactive) | 
COc1ccc(-c2cc(=O)c3c(O)c(OC)c(O)cc3o2)cc1O | 5.94 µM (inactive) | 9.4 µM (inactive) | 3.79 µM (inactive) | 10.7 µM (inactive) | 1.25 µM (inactive) | 19.3 µM (inactive) | 35 µM (inactive) | 5.51 µM (inactive) | 4.62 µM (inactive) | 1.3 µM (inactive) | 20.6 µM (inactive) | 4.9 µM (inactive) | 17.7 µM (inactive) | 3.3 µM (inactive) | 3.18 µM (inactive) | 6.27 µM (inactive) | 0.406 µM (active) | 13.8 µM (inactive) | 
CCO[C@@]1(COCc2ccccc2)OC(=O)C[C@@H]1N1C(=O)OC[C@@H]1c1ccccc1 | > 100 µM (inactive) | > 100 µM (inactive) | > 100 µM (inactive) | > 100 µM (inactive) | 42.8 µM (inactive) | > 100 µM (inactive) | > 100 µM (inactive) | > 100 µM (inactive) | > 100 µM (inactive) | > 100 µM (inactive) | > 100 µM (inactive) | > 100 µM (inactive) | > 100 µM (inactive) | > 100 µM (inactive) | 32.5 µM (inactive) | > 100 µM (inactive) | > 100 µM (inactive) | > 100 µM (inactive) | 
COc1ccc(/C=C2\CSC/C(=C\c3ccc(OC)c(OC)c3OC)C2=O)c(OC)c1OC | > 100 µM (inactive) | 15.6 µM (inactive) | 65 µM (inactive) | 41.6 µM (inactive) | 29.2 µM (inactive) | 35.5 µM (inactive) | > 100 µM (inactive) | 66.4 µM (inactive) | 37.8 µM (inactive) | 5.86 µM (inactive) | 37.9 µM (inactive) |  | 43.5 µM (inactive) | 34.5 µM (inactive) | 32.4 µM (inactive) | > 100 µM (inactive) | 30.3 µM (inactive) | 16.9 µM (inactive) | 26.9 µM (inactive)
S=C1CCSc2c(ccc3ccccc23)N1 | 70.5 µM (inactive) | 0.512 µM (active) | 72.4 µM (inactive) | 58.6 µM (inactive) | 33.2 µM (inactive) | 67.1 µM (inactive) | > 100 µM (inactive) | > 100 µM (inactive) | > 100 µM (inactive) | > 100 µM (inactive) | > 100 µM (inactive) |  | > 100 µM (inactive) | 71.8 µM (inactive) | > 100 µM (inactive) | > 100 µM (inactive) | > 100 µM (inactive) | > 100 µM (inactive) | 35.6 µM (inactive)
CN(Cc1cnc2nc(N)nc(N)c2n1)c1ccc(C(=O)NCCS(=O)(=O)O)cc1 | > 100 µM (inactive) |  | > 100 µM (inactive) | > 100 µM (inactive) | > 100 µM (inactive) | > 100 µM (inactive) | > 100 µM (inactive) | > 100 µM (inactive) | > 100 µM (inactive) | > 100 µM (inactive) | > 100 µM (inactive) | > 100 µM (inactive) | > 100 µM (inactive) | > 100 µM (inactive) | > 100 µM (inactive) | > 100 µM (inactive) | > 100 µM (inactive) | > 100 µM (inactive) | 67.6 µM (inactive)
CC(=O)c1csc2c1C(=O)c1scc(C(C)=O)c1C2=O | 0.323 µM (active) | 2.13 µM (inactive) | 1.38 µM (inactive) | 1.47 µM (inactive) | 0.112 µM (active) | 1.75 µM (inactive) | 2.25 µM (inactive) | 0.348 µM (active) | 1.57 µM (inactive) | 1.49 µM (inactive) | 1.97 µM (inactive) | 1.54 µM (inactive) | 1.37 µM (inactive) | 1.03 µM (active) | 1.73 µM (inactive) | 2 µM (inactive) | 0.176 µM (active) | 1.68 µM (inactive) | 
O=C(NCc1cccc(C(F)(F)F)c1)c1cc2sccc2nc1C(F)(F)F | > 100 µM (inactive) | 27.7 µM (inactive) | > 100 µM (inactive) | 64 µM (inactive) |  | > 100 µM (inactive) | 98.9 µM (inactive) | 51.4 µM (inactive) | > 100 µM (inactive) | > 100 µM (inactive) | > 100 µM (inactive) |  | > 100 µM (inactive) |  | > 100 µM (inactive) | > 100 µM (inactive) | > 100 µM (inactive) | 38.7 µM (inactive) | > 100 µM (inactive)
CCOC(=O)c1c(-c2ccc(OC)cc2)c(C#N)c(=S)n(C2OC(COC(C)=O)C(OC(C)=O)C(OC(C)=O)C2OC(C)=O)c1-c1ccccc1 (stereo not given) | > 100 µM (inactive) | > 100 µM (inactive) | > 100 µM (inactive) | > 100 µM (inactive) | > 100 µM (inactive) | > 100 µM (inactive) |  | > 100 µM (inactive) | > 100 µM (inactive) | > 100 µM (inactive) |  |  | > 100 µM (inactive) | > 100 µM (inactive) | > 100 µM (inactive) | > 100 µM (inactive) | > 100 µM (inactive) | > 100 µM (inactive) | > 100 µM (inactive)
COC(=O)C(CCCCN)NC(=O)C(CCCCN)NC(=O)C(CCCCN)NC(C)=O.Cc1ccc(C(=O)Nc2ccc(S(=O)(=O)O)c3cc(S(=O)(=O)O)cc(S(=O)(=O)O)c23)cc1NC(=O)c1cccc(NC(=O)Nc2cccc(C(=O)Nc3cc(C(=O)Nc4ccc(S(=O)(=O)O)c5cc(S(=O)(=O)O)cc(S(=O)(=O)O)c45)ccc3C)c2)c1 | > 50 µM (inactive) | > 50 µM (inactive) | > 50 µM (inactive) | 43 µM (inactive) | > 50 µM (inactive) | > 50 µM (inactive) | 17.7 µM (inactive) | > 50 µM (inactive) |  |  | > 50 µM (inactive) | > 50 µM (inactive) | > 50 µM (inactive) | 48.9 µM (inactive) | > 50 µM (inactive) | > 50 µM (inactive) | > 50 µM (inactive) | > 50 µM (inactive) | > 50 µM (inactive)
CC(C)(Cl)C(Br)CC/C(=C/CBr)CBr.CC(C)(Cl)C(Br)CC/C(=C\CBr)CBr (stereo not given) | 4.23 µM (inactive) | 4.22 µM (inactive) | 2.84 µM (inactive) | 2.14 µM (inactive) | 0.757 µM (active) | 2.77 µM (inactive) | 24.6 µM (inactive) | 1.89 µM (inactive) | 2.28 µM (inactive) | 1.78 µM (inactive) | 2.32 µM (inactive) | 8.63 µM (inactive) | 2.83 µM (inactive) | 3.61 µM (inactive) | 2.36 µM (inactive) | 1.62 µM (inactive) | 2.62 µM (inactive) | 3.88 µM (inactive) | 
COc1ccc(-c2nc(SCC(=O)N/N=C/c3ccc(N(C)C)cc3)[nH]c2-c2ccc(OC)cc2)cc1 | 10.6 µM (inactive) | 33.4 µM (inactive) | 13.5 µM (inactive) | > 100 µM (inactive) | 11.5 µM (inactive) | > 100 µM (inactive) |  | > 100 µM (inactive) | > 100 µM (inactive) | > 100 µM (inactive) | 10.2 µM (inactive) | 71.9 µM (inactive) | > 100 µM (inactive) | 32.7 µM (inactive) | 32.6 µM (inactive) | 82.8 µM (inactive) | 76.9 µM (inactive) | 51.9 µM (inactive) | 
c1ccc(C/C(=N\Nc2nc3ccccc3[nH]2)c2ccccn2)cc1 | < 0.01 µM (active) | 0.166 µM (active) | < 0.01 µM (active) | 0.0444 µM (active) |  | 0.248 µM (active) | < 0.0279 µM (active) | 0.0396 µM (active) | < 0.01 µM (active) | < 0.0347 µM (active) | < 0.01 µM (active) | 0.217 µM (active) | 0.019 µM (active) | 0.126 µM (active) | 0.16 µM (active) | 0.0261 µM (active) | 0.262 µM (active) | 0.0131 µM (active) | 
COC(=O)C1=C(O)C(C(=O)OC)[C@]2(O)[C@H](C(=O)OC)[C@H]1C[C@@H](c1ccc(OC)c(OC)c1)[C@H]2C(=O)OC (stereo not given in full) | 15.9 µM (inactive) | 14.3 µM (inactive) | 17.3 µM (inactive) |  | 7.83 µM (inactive) | 16.4 µM (inactive) | 4.79 µM (inactive) | 34.2 µM (inactive) | 26.1 µM (inactive) |  | 17.9 µM (inactive) | 18 µM (inactive) | 19.8 µM (inactive) | 14.7 µM (inactive) | 21.1 µM (inactive) | 24.5 µM (inactive) | 7.13 µM (inactive) | 25.8 µM (inactive) | 14 µM (inactive)
